System: Secretion of ApoB
Assay: Quantification of the secretion of ApoB in HepG2 cells
Assay type: cell-based
Conditions: Homo sapiens, HepG2, 24 h, 24 hours of incubation with test compound, immunoprecipitation of apoB from medium, read-out: pIC50 value (=-log IC50 value), secretion of ApoB (converted)
Description: HepG2 cells were cultured in 24-well plates in MEM Rega 3 containing 10% fetal calf serum. At 70% confluency, the medium was changed and the test compound or carrier (DMSO, 0.4% final concentration) was added. After 24 hours of incubation, the medium was transferred to Eppendorf tubes and cleared by centrifugation. A sheep antibody directed against either apoB was added to the supernatant and the mixture was kept at 8° C. for 24 hours. Then, rabbit anti-sheep antibody was added and the immune complex was allowed to precipitate for 24 hours at 8° C. The immunoprecipitate was pelleted by centrifugation for 25 minutes at 1320 g and washed twice with a buffer containing 40 mM Mops, 40 mM NaH2PO4, 100 mM NaF, 0.2 mM DTT, 5 mM EDTA, 5 mM EGTA, 1% Triton-X-100, 0.5% sodium deoxycholate (DOC), 0.1% SDS, 0.2 μM leupeptin and 0.2 μM PMSF. Radioactivity in the pellet was quantified by liquid scintillation-counting. The IC50 values are usually converted to pIC50 values (=−log IC50 value) for ease of use.

IC50 [nM]	Structure (SMILES)
< 31.6	CCOC(=O)[C@H](c1ccccc1)N1CCN(c2ccc(-n3ccn([C@H](C)c4ccccc4)c3=O)cc2)CC1 (relative stereo) [Compound 267]
31.6 to 316	CCOC(=O)[C@H](c1ccccc1)N1CCN(c2ccc(-n3ccn([C@H](C)c4ccc(F)cc4)c3=O)cc2)CC1 (relative stereo) [Compound 268]
31.6 to 316	CCOC(=O)[C@H](c1ccccc1)N1CCN(c2ccc(-n3ccn([C@H](C)c4cccc(C(F)(F)F)c4)c3=O)cc2)CC1 (relative stereo) [Compound 269]
31.6 to 316	CCOC(=O)[C@H](c1ccccc1)N1CCN(c2ccc(-n3ccn([C@H](C)c4ccc(C(F)(F)F)cc4)c3=O)cc2)CC1 (relative stereo) [Compound 270]
316 to 3160	CCOC(=O)[C@H](c1ccccc1)N1CCN(c2ccc(-n3ccn([C@@H](C)c4ccccc4F)c3=O)cc2)CC1 (relative stereo) [Compound 272]
316 to 3160	CCOC(=O)[C@@H](c1ccccc1)N1CCN(c2ccc(-n3ccn([C@H](C)c4ccc(F)cc4)c3=O)cc2)CC1 (relative stereo) [Compound 273]
316 to 3160	CCOC(=O)[C@@H](c1ccccc1)N1CCN(c2ccc(-n3ccn([C@@H](C)c4cc(C(F)(F)F)cc(C(F)(F)F)c4)c3=O)cc2)CC1 (relative stereo) [Compound 274]
31.6 to 316	CCOC(=O)[C@@H](c1ccccc1)N1CCN(c2ccc(-n3cnn([C@@H](C)c4ccccc4)c3=O)cc2)CC1 (relative stereo) [Compound 281]
316 to 3160	CCOC(=O)[C@@H](c1ccccc1)N1CCN(c2ccc(-n3cnn([C@H](C)c4ccc(F)cc4)c3=O)cc2)CC1 (relative stereo) [Compound 298]
31.6 to 316	CCOC(=O)[C@@H](c1ccccc1)N1CCN(c2ccc(-n3cnn([C@@H](C)c4ccc(F)cc4)c3=O)cc2)CC1 (relative stereo) [Compound 299]
31.6 to 316	CCOC(=O)[C@H](c1ccccc1)N1CCN(c2ccc(-n3ccn([C@H](C)c4ccccc4F)c3=O)cc2)CC1 (stereo in doubt) [Compound 271]
316 to 3160	CCOC(=O)[C@@H](c1ccccc1)N1CCN(c2ccc(-n3ccn([C@@H](C)c4ccccc4F)c3=O)cc2)CC1 (stereo in doubt) [Compound 275]
316 to 3160	CCOC(=O)[C@@H](c1ccccc1)N1CCN(c2ccc(-n3cnn([C@H](C)c4ccccc4)c3=O)cc2)CC1 (stereo in doubt) [Compound 280]
31.6 to 316	CCOC(=O)[C@H](c1ccccc1)N1CCN(c2ccc(-n3cnn([C@@H](C)c4ccccc4)c3=O)cc2)CC1 (stereo in doubt) [Compound 304]
31.6 to 316	CCOC(=O)[C@H](c1ccccc1)N1CCN(c2ccc(-n3ccn(C(C)c4cccc(F)c4)c3=O)cc2)CC1 (stereo in doubt) [Compound 337]
31.6 to 316	CCOC(=O)[C@H](c1ccccc1)N1CCN(c2ccc(-n3ccn(C(C)c4cccc(F)c4F)c3=O)cc2)CC1 (stereo in doubt) [Compound 338]
31.6 to 316	CCOC(=O)[C@H](c1ccccc1)N1CCN(c2ccc(-n3ccn(C(C)c4ccc(F)cc4F)c3=O)cc2)CC1 (stereo in doubt) [Compound 339]
31.6 to 316	CCOC(=O)[C@H](c1ccccc1)N1CCN(c2ccc(-n3ccn(C(C)c4cc(F)ccc4F)c3=O)cc2)CC1 (stereo in doubt) [Compound 340]
31.6 to 316	CCOC(=O)[C@H](c1ccccc1)N1CCN(c2ccc(-n3ccn(C(C)c4ccc(F)c(F)c4)c3=O)cc2)CC1 (stereo in doubt) [Compound 341]
31.6 to 316	CCOC(=O)[C@H](c1ccccc1)N1CCN(c2ccc(-n3ccn(C(C)c4cc(F)cc(F)c4)c3=O)cc2)CC1 (stereo in doubt) [Compound 342]
31.6 to 316	CCCN(CCC)C(=O)C(CCN1CCN(c2ccc(-n3ncn(C(C)C)c3=O)cc2)CC1)c1ccccc1 (stereo not shown) [Compound 3]

IC50 [nM]	Structure (SMILES)
316 to 3160	COCCNC(=O)C(c1ccccc1)N1CCN(c2ccc(-n3cnn(C(C)C)c3=O)cn2)CC1 (stereo not shown) [Compound 4]
316 to 3160	CC(C)n1cnn(-c2ccc(N3CCN(C(C(=O)Nc4ccccc4)c4ccccc4)CC3)cc2)c1=O (stereo not shown) [Compound 5]
31.6 to 316	CC(C)n1ncn(-c2ccc(N3CCN(CC(C(=O)N(C)C)c4ccccc4)CC3)cc2)c1=O (stereo not shown) [Compound 6]
31.6 to 316	CC(C)NC(=O)C(c1ccccc1)N1CCN(c2ccc(-n3cnn(C(C)C)c3=O)cc2)CC1 (stereo not shown) [Compound 7]
31.6 to 316	CC(C)n1ncn(-c2ccc(N3CCN(C(C(=O)Nc4ccccc4)c4ccccc4)CC3)cc2)c1=O (stereo not shown) [Compound 8]
316 to 3160	CCCC(C(=O)OCC)N1CCN(c2ccc(-n3cnn(C(C)C)c3=O)cc2)CC1 (stereo not shown) [Compound 9]
316 to 3160	CC(C)n1ncn(-c2ccc(N3CCN(C(C(=O)Nc4ccncc4)c4ccccc4)CC3)cc2)c1=O (stereo not shown) [Compound 10]
< 31.6	CC(C)n1ncn(-c2ccc(N3CCN(C(C(=O)Nc4ccc5c(c4)CCC5)c4ccccc4)CC3)cc2)c1=O (stereo not shown) [Compound 11]
316 to 3160	Cc1cccc(NC(=O)C(c2ccccc2)N2CCN(c3ccc(-n4cnn(C(C)C)c4=O)cc3)CC2)n1 (stereo not shown) [Compound 12]
316 to 3160	CCOC(=O)C(c1cccs1)N1CCN(c2ccc(-n3cnn(C(C)C)c3=O)cc2)CC1 (stereo not shown) [Compound 13]
316 to 3160	CC(C)n1ncn(-c2ccc(N3CCN(C(C(=O)Nc4cccc5cccnc45)c4ccccc4)CC3)cc2)c1=O (stereo not shown) [Compound 15]
316 to 3160	CC(C)n1ncn(-c2ccc(N3CCN(C(C(=O)Nc4cccnc4)c4ccccc4)CC3)cc2)c1=O (stereo not shown) [Compound 16]
316 to 3160	CCOC(=O)C(c1ccccc1)N1CCN(c2ccc(-n3cnn(C(C)C)c3=O)cc2)CC1 (stereo not shown) [Compound 17]
316 to 3160	CNC(=O)C(c1ccccc1)N1CCN(c2ccc(-n3cnn(C(C)C)c3=O)cn2)CC1 (stereo not shown) [Compound 18]
31.6 to 316	CC(C)n1ncn(-c2ccc(C3CCN(C(C(=O)Nc4ccccc4)c4ccccc4)CC3)cc2)c1=O (stereo not shown) [Compound 19]
31.6 to 316	CC(C)n1ncn(-c2ccc(C3CCN(C(C(=O)NCc4ccccc4)c4ccccc4)CC3)cc2)c1=O (stereo not shown) [Compound 20]
31.6 to 316	CCC(C)n1ncn(-c2ccc(N3CCN(C(C(=O)NC(C)C)c4ccccc4)CC3)cc2)c1=O (stereo not shown) [Compound 21]
31.6 to 316	CCC(C)n1ncn(-c2ccc(N3CCN(C(C(=O)NCc4ccccc4)c4ccccc4)CC3)cc2)c1=O (stereo not shown) [Compound 22]
31.6 to 316	CCC(C)n1ncn(-c2ccc(N3CCN(C(C(=O)Nc4ccccc4)c4ccccc4)CC3)cc2)c1=O (stereo not shown) [Compound 23]
31.6 to 316	CCC(C)n1ncn(-c2ccc(N3CCN(C(C(=O)N(C)C)c4ccccc4)CC3)cc2)c1=O (stereo not shown) [Compound 24]
316 to 3160	O=C(NCc1ccccc1)C(c1ccccc1)N1CCN(c2ccc(-n3nc(-c4ccccc4)n(-c4ccccc4)c3=O)cc2)CC1 (stereo not shown) [Compound 25]

IC50 [nM]	Structure (SMILES)
316 to 3160	CCNC(=O)C(c1ccccc1)N1CCN(c2ccc(-n3nc(-c4ccccc4)n(-c4ccccc4)c3=O)cc2)CC1 (stereo not shown) [Compound 26]
316 to 3160	CCNC(=O)C(c1ccccc1)N1CCN(c2ccc(-n3c(-c4ccccc4)nn(-c4ccccc4)c3=O)cc2)CC1 (stereo not shown) [Compound 28]
316 to 3160	COC(=O)C(c1ccccc1)N1CCN(c2ccc(-n3nc(-c4ccccc4)n(-c4ccccc4)c3=O)cc2)CC1 (stereo not shown) [Compound 29]
316 to 3160	CCCNC(=O)C(c1ccccc1)N1CCN(c2ccc(-n3nc(-c4ccccc4)n(C(C)C)c3=O)cc2)CC1 (stereo not shown) [Compound 30]
316 to 3160	CCNC(=O)C(c1ccccc1)N1CCN(c2ccc(-n3c(-c4ccccc4)nn(C(C)C)c3=O)cc2)CC1 (stereo not shown) [Compound 31]
316 to 3160	CCCNC(=O)C(c1ccccc1)N1CCN(c2ccc(-n3c(-c4ccccc4)nn(C(C)C)c3=O)cc2)CC1 (stereo not shown) [Compound 32]
316 to 3160	CC(C)n1nc(-c2ccccc2)n(-c2ccc(N3CCN(C(C(=O)NCc4ccccc4)c4ccccc4)CC3)cc2)c1=O (stereo not shown) [Compound 33]
316 to 3160	COC(=O)C(c1ccccc1)N1CCN(c2ccc(-n3nc(-c4ccccc4)n(C(C)C)c3=O)cc2)CC1 (stereo not shown) [Compound 34]
316 to 3160	COC(=O)C(c1ccccc1)N1CCN(c2ccc(-n3c(-c4ccccc4)nn(C(C)C)c3=O)cc2)CC1 (stereo not shown) [Compound 35]
316 to 3160	COC(=O)C(c1ccccc1)N1CCN(c2ccc(-n3ncn(C(C)C)c3=O)cc2)CC1 (stereo not shown) [Compound 36]
316 to 3160	CC(C)n1ncn(-c2ccc(N3CCN(C(C(=O)Nc4ccccc4)c4ccccc4)CC3)nc2)c1=O (stereo not shown) [Compound 37]
316 to 3160	CCCOC(=O)C(c1ccccc1)N1CCN(c2ccc(-n3cnn(C(C)C)c3=O)cc2)CC1 (stereo not shown) [Compound 38]
316 to 3160	CCNC(=O)C(c1ccccc1)N1CCN(c2ccc(-n3nc(C)n(C(C)C)c3=O)cc2)CC1 (stereo not shown) [Compound 39]
316 to 3160	Cc1nn(-c2ccc(N3CCN(C(C(=O)NCc4ccccc4)c4ccccc4)CC3)cc2)c(=O)n1C(C)C (stereo not shown) [Compound 40]
316 to 3160	CCCOC(=O)C(CN1CCN(c2ccc(-n3cnn(C(C)C)c3=O)cc2)CC1)c1ccccc1 (stereo not shown) [Compound 41]
316 to 3160	CCCCNC(=O)C(c1ccccc1)N1CCN(c2ccc(-n3cnn(C(C)C)c3=O)cn2)CC1 (stereo not shown) [Compound 42]
316 to 3160	CC(C)CNC(=O)C(c1ccccc1)N1CCN(c2ccc(-n3cnn(C(C)C)c3=O)cn2)CC1 (stereo not shown) [Compound 43]
31.6 to 316	CCCCCNC(=O)C(c1ccccc1)N1CCN(c2ccc(-n3cnn(C(C)C)c3=O)cn2)CC1 (stereo not shown) [Compound 44]
316 to 3160	CC(C)n1ncn(-c2ccc(N3CCN(C(C(=O)NCc4ccccn4)c4ccccc4)CC3)nc2)c1=O (stereo not shown) [Compound 45]
